Consider one compound from ChEMBL document CHEMBL1144019 (Bioorg Med Chem, 2008).

In brackets after ≈: the same amount, converted by molar mass.

One data set concerns Staphylococcus aureus. Briefly: Antibacterial activity against Staphylococcus aureus Smith by standard serial agar dilution method. In kind it is functional. A general note: Agar dilution tests growth on a series of plates holding different concentrations.
A further data set deals with Streptococcus pneumoniae. The data set is described as follows: Antibacterial activity against penicillin-resistant Streptococcus pneumoniae SR-16675 by standard serial agar dilution method. It counts as functional.
For data set [1], the system named is Escherichia coli. Briefly: Antibacterial activity against Escherichia coli SR-21003 by standard serial agar dilution method. In kind it is functional.
Data set [2] concerns Escherichia coli. Briefly: Antibacterial activity against Toho 2 producing Escherichia coli by standard serial agar dilution method. In kind it is functional.
For data set [3], the system named is Enterobacter cloacae. The data set is described as follows: Antibacterial activity against Enterobacter cloacae ATCC 13047 by standard serial agar dilution method. It counts as functional.
Data set [4] concerns Enterobacter cloacae. Briefly: Antibacterial activity against AmpC producing Enterobacter cloacae SR-4321 by standard serial agar dilution method. It counts as functional.
The test system of data set [5] is Pseudomonas aeruginosa. The data set is described as follows: Antibacterial activity against Pseudomonas aeruginosa SR24 by standard serial agar dilution method. In kind it is functional.
The test system of data set [6] is Pseudomonas aeruginosa. The data set is described as follows: Antibacterial activity against AmpC hyperproducing Pseudomonas aeruginosa SR24-12 by standard serial agar dilution method. It counts as functional.
Data set [7] deals with Pseudomonas aeruginosa. The data set is described as follows: Antibacterial activity against Pseudomonas aeruginosa SR-5393 by standard serial agar dilution method. It counts as functional.
The test system of data set [8] is Pseudomonas aeruginosa. Briefly: Antibacterial activity against imipenem-resistant Pseudomonas aeruginosa SR-6554 by standard serial agar dilution method. In kind it is functional.
Data set [9] has as its system Haemophilus influenzae. The data set is described as follows: Antibacterial activity against Haemophilus influenzae ATCC 49766 by standard serial agar dilution method. It counts as functional.
The subject of data set [10] is Haemophilus influenzae. Briefly: Antibacterial activity against beta-lactamase negative ampicillin-resistant Haemophilus influenzae SR-11435 by standard serial agar dilution method. It counts as functional.
The test system of a further data set is Moraxella catarrhalis. Briefly: Antibacterial activity against Moraxella catarrhalis ATCC 43617 by standard serial agar dilution method. In kind it is functional.
Data set [11] concerns Pseudomonas aeruginosa. Briefly: Antibacterial activity against Pseudomonas aeruginosa SR-24722 isolate by standard serial agar dilution method. In kind it is functional.
For data set [12], the system named is Pseudomonas aeruginosa. The data set is described as follows: Antibacterial activity against Pseudomonas aeruginosa SR-24736 isolate by standard serial agar dilution method. It counts as functional.
The subject of data set [13] is Pseudomonas aeruginosa. Briefly: Antibacterial activity against Pseudomonas aeruginosa SR-24765 isolate by standard serial agar dilution method. It counts as functional.
In data set [14] the test system is Pseudomonas aeruginosa. The data set is described as follows: Antibacterial activity against Pseudomonas aeruginosa SR-24770 isolate by standard serial agar dilution method. It counts as functional.
Data set [15] relates to Pseudomonas aeruginosa. The data set is described as follows: Antibacterial activity against Pseudomonas aeruginosa SR-24797 isolate by standard serial agar dilution method. In kind it is functional.
The test system of data set [16] is Pseudomonas aeruginosa. The data set is described as follows: Antibacterial activity against Pseudomonas aeruginosa SR-24816 isolate by standard serial agar dilution method. In kind it is functional.
The test system of data set [17] is Pseudomonas aeruginosa. The data set is described as follows: Antibacterial activity in CAZ-susceptible Pseudomonas aeruginosa SR24 infected ICR mouse after 7 days. It counts as functional. Conditions: 168 h.
Data set [18] has as its system Pseudomonas aeruginosa. Briefly: Antibacterial activity in CAZ-resistant Pseudomonas aeruginosa SR24-12 infected ICR mouse after 7 days. It counts as functional. Conditions: 168 h.
A short description of data set [19]: Stability in presence of AmpC beta-lactamase. In kind it is ADME.

The ED50 is the dose that gives a 50% effect, or the effect in half of the subjects.

In the case of `CC(C)(O/N=C(\C(=O)N[C@@H]1C(=O)N2C(C(=O)[O-])=C(C[n+]3ccccc3)CS[C@H]12)c1csc(N)n1)C(=O)O` [CEFTAZIDIME], the MIC in the data set on Staphylococcus aureus is 8 µg/mL (≈ 14.6 µM); in the data set with Streptococcus pneumoniae it was 8 µg/mL (≈ 14.6 µM); against Escherichia coli [1], 0.25 µg/mL (≈ 0.457 µM); against Escherichia coli [2], 1 µg/mL (≈ 1.83 µM); with Enterobacter cloacae [3], 8 µg/mL (≈ 14.6 µM); with Enterobacter cloacae [4] it was 64 µg/mL (≈ 117 µM). Also, the MIC in the data set on Pseudomonas aeruginosa [5] was 0.5 µg/mL (≈ 0.915 µM); against Pseudomonas aeruginosa [6], 64 µg/mL (≈ 117 µM); in the data set with Pseudomonas aeruginosa [7] it was 2 µg/mL (≈ 3.66 µM); against Pseudomonas aeruginosa [8] it was 32 µg/mL (≈ 58.5 µM); against Haemophilus influenzae [9], 0.063 µg/mL (≈ 0.115 µM); in the data set with Haemophilus influenzae [10], 0.125 µg/mL (≈ 0.229 µM). The MIC with Moraxella catarrhalis stood at 0.063 µg/mL (≈ 0.115 µM); in the data set with Pseudomonas aeruginosa [11], 64 µg/mL (≈ 117 µM); against Pseudomonas aeruginosa [12] it was 128 µg/mL (≈ 234 µM); in the data set on Pseudomonas aeruginosa [13], 128 µg/mL (≈ 234 µM); against Pseudomonas aeruginosa [14] it was 64 µg/mL (≈ 117 µM); against Pseudomonas aeruginosa [15] it was 64 µg/mL (≈ 117 µM). In the data set with Pseudomonas aeruginosa [16], this compound showed an MIC of 64 µg/mL (≈ 117 µM). The ED50 was 2.83 mg/kg in the data set on Pseudomonas aeruginosa [17] and over 128 mg/kg in the data set on Pseudomonas aeruginosa [18]. Besides, the Stability in data set [19] stood at 18%.
